Source: patent US20230210755A1, “FUNCTIONAL SKIN COATING POLYMER” (The Johns Hopkins University, priority 2020, published 2023)

Assay: Extractables and leachables from UV absorber containing films in synthetic perspiration, quantitative 1H NMR
Assay type: physicochemical
Details: control: UV filter post-added to extract of Comparative 1 film just prior to concentration (recovery)
Experimental: The films described hereinabove, including the comparative example were further characterized for their ability to retain their UV-filtering components under pseudo-physiological conditions with the potential to extract unbound or otherwise mobile UV-filtering compounds. In general, films were immersed in a gently agitated solution of artificial perspiration for 24 hours at room temperature. Following removal of the films, a small amount of dimethylsulfone was added to each extract solution before it was concentrated to dryness under vacuum (65° C./0 torr). The resulting residues were then taken up in DMSO-d6 and analyzed by quantitative ^1H NMR against the added internal standard (dimethylsulfone). The method was validated by control samples, which were prepared by spiking the extracts derived from silicone films made without UV-filtering compounds, with known amounts of UV-filtering compounds immediately prior to concentration under vacuum.
20-mL screw cap borosilicate vials were charged with 10 g of synthetic perspiration (purchased from Reagents). […] Samples were then analyzed using a Bruker 400 MHz NMR spectrometer. Quantitative determination of the extracted UV filter(s) was then made by comparing the relative integration of distinct resonances derived from the UV filtering compound(s) against that of the internal standard (dimethylsulfone).

CCCCC(CC)COC(=O)C=Cc1ccc(OC)cc1 (stereo not shown) [Octinoxate]
UV filter found by 1H NMR: 98%
